Values quoted from earlier work as cited in PubChem BioAssay AID1259409 (Chemical Carcinogenesis Research Information System (CCRIS), 2018).

System: rodent chemically induced tumor inhibition, incidence and multiplicity
Test: CCRIS tumor inhibitor studies
Settings: Carcinogen: 2,2'-DIHYDROXY-DI-N-PROPYLNITROSAMINE, 53609-64-6, 13147-25-6, Carcinogen: 2,2'-DIHYDROXY-DI-N-PROPYLNITROSAMINE, 53609-64-6, 13147-25-6, Dose [Inhibitor]: 0, Route [Inhibitor]: ORAL, Species: RAT, Strain/Sex: F344/MALE, Promoter: NONE USED

SMILES: COc1cc(/C=C/C(=O)O[C@H]2CC[C@]34C[C@]35CC[C@]3(C)[C@@H]([C@H](C)CCC=C(C)C)CC[C@@]3(C)[C@@H]5CC[C@H]4C2(C)C)ccc1O
- tumour outcome (control, treated, inhibition, significance) (N-ETHYL-N-HYDROXYETHYL- NITROSAMINE, 3,2'-DIMETHYL-4-, N-ETHYL-N-HYDROXYETHYL- NITROSAMINE, 3,2'-DIMETHYL-4-, 1% IN DIET BEGINNING 1 WK POST LAST CARCINOGEN DOSE AND CONTINUING FOR 32 WK (STUDY DURATION: 36 WK), Target Tissue: Type of Lesion: LIVER: HEPATOCELLULAR CARCINOMA, Dose [Carcinogen]: 1000 MG/KG IP DHPN 2X, 1500 MG/KG GAV EHEN 2X AND 75 MG/KG SC DMAB 3X GIVEN OVER THE INITIAL 3 WK PERIOD AT 3-4 D INTERV): 6/14 (43%), 3/13 (23%), 47%, not calculated
- tumour outcome (control, treated, inhibition, significance) (N-ETHYL-N-HYDROXYETHYL- NITROSAMINE, 3,2'-DIMETHYL-4-, N-ETHYL-N-HYDROXYETHYL- NITROSAMINE, 3,2'-DIMETHYL-4-, 1% IN DIET BEGINNING 1 WK POST LAST CARCINOGEN DOSE AND CONTINUING FOR 32 WK (STUDY DURATION: 36 WK), Target Tissue: Type of Lesion: LUNG: ADENOMA, Dose [Carcinogen]: 1000 MG/KG IP DHPN 2X, 1500 MG/KG GAV EHEN 2X AND 75 MG/KG SC DMAB 3X GIVEN OVER THE INITIAL 3 WK PERIOD AT 3-4 D INTERV): 7/14 (50%), 11/13 (85%), -70%, not calculated
- tumour outcome (control, treated, inhibition, significance) (N-ETHYL-N-HYDROXYETHYL- NITROSAMINE, 3,2'-DIMETHYL-4-, N-ETHYL-N-HYDROXYETHYL- NITROSAMINE, 3,2'-DIMETHYL-4-, 1% IN DIET BEGINNING 1 WK POST LAST CARCINOGEN DOSE AND CONTINUING FOR 32 WK (STUDY DURATION: 36 WK), Target Tissue: Type of Lesion: LUNG: CARCINOMA, Dose [Carcinogen]: 1000 MG/KG IP DHPN 2X, 1500 MG/KG GAV EHEN 2X AND 75 MG/KG SC DMAB 3X GIVEN OVER THE INITIAL 3 WK PERIOD AT 3-4 D INTERV): 1/14 (7%), 7/13 (54%), -671%, p<0.05
- outcome (N-ETHYL-N-HYDROXYETHYL- NITROSAMINE, 3,2'-DIMETHYL-4-, N-ETHYL-N-HYDROXYETHYL- NITROSAMINE, 3,2'-DIMETHYL-4-, 1% IN DIET BEGINNING 1 WK POST LAST CARCINOGEN DOSE AND CONTINUING FOR 32 WK (STUDY DURATION: 36 WK), Target Tissue: Type of Lesion: URINARY BLADDER: PAPILLOMA, Dose [Carcinogen]: 1000 MG/KG IP DHPN 2X, 1500 MG/KG GAV EHEN 2X AND 75 MG/KG SC DMAB 3X GIVEN OVER THE INITIAL 3 WK PERIOD AT 3-4 D INTERV): 0/14 (0%), 3/13 (23%), -100%, not calculated
- tumour outcome (control, treated, inhibition, significance) (N-ETHYL-N-HYDROXYETHYLNITROSAMINE, 3,2'-DIMETHYL-4-AMINO-, N-ETHYL-N-HYDROXYETHYLNITROSAMINE, 3,2'-DIMETHYL-4-AMINO-, 1% IN DIET FOR 32 WK BEGINNING 1 WK POST CARCINOGEN TREATMENT (STUDY DURATION: 36 WK), Target Tissue: Type of Lesion: KIDNEY: ADENOMA, Dose [Carcinogen]: 1000 MG/KG BW DHPN TWICE , 1500 MG/KG BW EHEN TWICE, 75 MG/KG BW 3 TIMES ADMINISTERED OVER FIRST 3 WK): 6/14 (43%), 9/13 (69%), -60%, not significant
- tumour outcome (control, treated, inhibition, significance) (N-ETHYL-N-HYDROXYETHYLNITROSAMINE, 3,2'-DIMETHYL-4-AMINO-, N-ETHYL-N-HYDROXYETHYLNITROSAMINE, 3,2'-DIMETHYL-4-AMINO-, 1% IN DIET FOR 32 WK BEGINNING 1 WK POST CARCINOGEN TREATMENT (STUDY DURATION: 36 WK), Target Tissue: Type of Lesion: KIDNEY: NEPHROBLASTOMA, Dose [Carcinogen]: 1000 MG/KG BW DHPN TWICE, 1500 MG/KG BW EHEN TWICE, 75 MG/KG BW 3 TIMES ADMINISTERED OVER FIRST 3 WK): 2/14 (14%), 0/13 (0%), 100%, not significant
- tumour outcome (control, treated, inhibition, significance) (N-ETHYL-N-HYDROXYETHYLNITROSAMINE, 3,2'-DIMETHYL-4-AMINO-, N-ETHYL-N-HYDROXYETHYLNITROSAMINE, 3,2'-DIMETHYL-4-AMINO-, 1% IN DIET FOR 32 WK BEGINNING 1 WK POST CARCINOGEN TREATMENT (STUDY DURATION: 36 WK), Target Tissue: Type of Lesion: KIDNEY: TRANSITIONAL CELL CARCINOMA, Dose [Carcinogen]: 1000 MG/KG BW DHPN TWICE , 1500 MG/ KG BW EHEN TWICE, 75 MG/KG BW 3 TIMES ADMINISTERED OVER FIRST THREE WEEKS): 1/14 (7%), 2/13 (15%), -114%, not significant
- tumour outcome (control, treated, inhibition, significance) (N-ETHYL-N-HYDROXYETHYLNITROSAMINE, 3,2'-DIMETHYL-4-AMINO-, N-ETHYL-N-HYDROXYETHYLNITROSAMINE, 3,2'-DIMETHYL-4-AMINO-, 1% IN DIET FOR 32 WK BEGINNING 1 WK POST CARCINOGEN TREATMENT (STUDY DURATION: 36 WK), Target Tissue: Type of Lesion: LARGE INTESTINE: CARCINOMA, Dose [Carcinogen]: 1000 MG/KG BW DHPN TWICE, 1500 MG/KG BW EHEN TWICE, 75 MG/KG BW 3 TIMES ADMINISTERED OVER 3 WK): 3/14 (21%), 6/13 (46%), -119%, not significant
- tumour outcome (control, treated, inhibition, significance) (N-ETHYL-N-HYDROXYETHYLNITROSAMINE, 3,2'-DIMETHYL-4-AMINO-, N-ETHYL-N-HYDROXYETHYLNITROSAMINE, 3,2'-DIMETHYL-4-AMINO-, 1% IN DIET FOR 32 WK BEGINNING 1 WK POST CARCINOGEN TREATMENT (STUDY DURATION: 36 WK), Target Tissue: Type of Lesion: LIVER: HEPATOCELLULAR CARCINOMA, Dose [Carcinogen]: 1000 MG/KG BW DHPN TWICE , 1500 MG/KG BW EHEN TWICE 75 MG/KG BW 3 TIMES ADMINISTERED OVER FIRST 3 WK): 6/14 (43%), 3/13 (23%), 47%, not significant
